These results are taken from publication PMC4900628, “Critical Evaluation of P2X7 Receptor Antagonists in Selected Seizure Models” (PLoS ONE, 2016).

Common to all, as to type: in vivo
For data set [1], the system named is PTZ-induced seizures in fully PTZ-kindled rats. Briefly: PTZ-induced seizures in fully kindled rats. Conditions: fully kindled rats; 20 mg/kg i.p.; pre-drug (vehicle) value 4.1. The source says: Results were expressed as mean seizure stages of a tested group in which the seizure behaviour after vehicle treatment (vehicle seizure stage) and after compound treatment (compound seizure stage), examined 3-4 days later, was matched. For comparison, the effectiveness of two antiepileptic drugs (carbamazepine and valproate) was also investigated. […] Chemicals, Toronto, Canada) was slowly added. The pH was adjusted with 1N NaOH (similar amount of NaOH as HCl), all with continuous stirring. […] The drug solutions or suspensions were prepared immediately before use; all doses refer to the salts. Animals in the control group received equivalent volumes of the vehicle (in mice always 10 ml/kg, in rats 1 ml/kg [JNJ], 3 ml/kg [AFC] or 4 ml/kg [BBG, TIIAS], depending on the solubility of the different compounds). Doses and peak time effects were selected on the basis of effective doses from corresponding in vivo studies in the literature: BBG (e.g.), tanshinone IIA (e.g.) and from manufacturer's experimental data: AFC, JNJ (see, [80]). Data were analysed using SigmaPlot (vers. 12.0, Systat Software, Erkrath, Germany) and SPSS (IBM SPSS Statistics 20, […], Germany), respectively. Results are expressed as mean ± SEM. […] In the MES-T, the current intensity inducing tonic hindlimb extensions in 50% of the mice (CC50 values with confidence limits for 95% probability) and the statistical significance was calculated using Probit analysis (SPSS). […] In the PTZ-T, the number of animals in the group with clonic seizures and the latency time were analysed using Fisher's exact probability test and the Mann-Whitney rank sum test, respectively. For multiple comparisons of the latency time a one-way ANOVA with the Holm-Sidak post hoc test was used. The influence of AFC on the plasma and brain concentrations of the antiepileptic drugs was statistical compared using the same procedure. In the PTZ-kindling model, the mean seizure stage within a group was calculated in relation to the number of PTZ-injections. Statistical comparison between vehicle- and compound-treated groups in this model was performed with two-way repeated measures ANOVA, followed by the Holm-Sidak post hoc test. The mean number of PTZ-injections needed to produce the first generalized seizure (≥ stage 3 convulsions) in the vehicle- versus compound-treated groups was statistically compared using a Mann-Whitney rank sum test. In fully kindled rats, the calculated mean seizure stage within a group after vehicle- and compound-treatment were compared using a paired t-test. P < 0.05 was the accepted minimum level of significance.

Data set [2] is described as follows: Plasma and brain concentration in mice (co-administration with AEDs). Particulars: MES-T; for concentration at 30 min: mouse, brain, intraperitoneal, CBZ 7 mg/kg i.p. On the procedure: Blood was collected intracardially by heart […] pipettes supplemented with heparin-Na (ratiopharm, Ulm, Germany; 10μl of 5.000 I.U./ml) and separated by centrifuging (1500xg for 10 min) at 6-8°C. The plasma was stored at -20°C in plastic tubes. After blood sample collection, rats were decapitated and brains were quickly dissected. After removing the adherent blood by tissue paper and cutting off the cerebellum, the samples were fresh frozen using liquid nitrogen. Brain tissue was stored at -80°C and delivered to the different laboratories on dry ice. For mice (groups with n = 6), a similar procedure was used for the preparation of plasma and brain samples. In experiments in which AFC was co-administered with carbamazepine or ethosuximide, drug concentrations in plasma and brain were estimated to detect potential pharmacokinetic interactions. Samples from experiments with AFC were analysed at the Lead Discovery Center (Dortmund, Germany). Briefly, AFC, carbamazepine and ethosuximide were extracted from plasma and homogenized brain by protein precipitation using acetonitrile. Resulting filtrates were analysed by liquid chromatography tandem-mass spectrometry (LC-MS/MS) using a Prominence UFLC system (Shimadzu, Duisburg, Germany) coupled to a QTrap 5500 instrument (ABSciex, Darmstadt, Germany). The compounds were separated on a Zorbax Eclipse Plus C18 column (Agilent Technologies, Santa Clara, CA, USA) with an acetonitrile/water gradient containing 0.1% formic acid as solvent. Chromatographic conditions and mass spectrometer parameters were optimized for each analyte. Plasma and brain concentrations of the compounds were calculated by means of a standard curve. Data were analysed using SigmaPlot (vers. 12.0, Systat Software, Erkrath, Germany) and SPSS (IBM SPSS Statistics 20, […], Germany), respectively. Results are expressed as mean ± SEM. […] In the MES-T, the current intensity inducing tonic hindlimb extensions in 50% of the mice (CC50 values with confidence limits for 95% probability) and the statistical significance was calculated using Probit analysis (SPSS). […] In the PTZ-T, the number of animals in the group with clonic seizures and the latency time were analysed using Fisher's exact probability test and the Mann-Whitney rank sum test, respectively. For multiple comparisons of the latency time a one-way ANOVA with the Holm-Sidak post hoc test was used. The influence of AFC on the plasma and brain concentrations of the antiepileptic drugs was statistical compared using the same procedure. In the PTZ-kindling model, the mean seizure stage within a group was calculated in relation to the number of PTZ-injections. Statistical comparison between vehicle- and compound-treated groups in this model was performed with two-way repeated measures ANOVA, followed by the Holm-Sidak post hoc test. The mean number of PTZ-injections needed to produce the first generalized seizure (≥ stage 3 convulsions) in the vehicle- versus compound-treated groups was statistically compared using a Mann-Whitney rank sum test. In fully kindled rats, the calculated mean seizure stage within a group after vehicle- and compound-treatment were compared using a paired t-test. P < 0.05 was the accepted minimum level of significance.

The subject of data set [3] is electroshock-induced tonic (hindlimb extension) seizures. Briefly: Maximal electroshock seizure threshold test (MES-T). Conditions: mice; carbamazepine 7 mg/kg i.p. alone, 30 min before. On the procedure: The stimulus train was applied via ear-clip electrodes (sinusoidal pulses 4-14 mA, 50 Hz, 0.2 s duration) by means of a constant current stimulator (rodent-shocker type 221; Hugo Sachs Elektronik, March-Hugstetten, Germany). […] Groups of 20 mice were used. Control groups, which received the corresponding vehicle, were tested together with the compound-treated groups on the same experimental day. Current intensity-effect curves were obtained on the basis of the number of animals responding with the endpoint at the corresponding current value. The results are calculated as convulsive current fifty (CC50) values (current intensity in mA, necessary to produce tonic hindlimb extension in 50% of the mice tested) including the confidence limits for 95% probability. […] Chemicals, Toronto, Canada) was slowly added. The pH was adjusted with 1N NaOH (similar amount of NaOH as HCl), all with continuous stirring. […] The drug solutions or suspensions were prepared immediately before use; all doses refer to the salts. Animals in the control group received equivalent volumes of the vehicle (in mice always 10 ml/kg, in rats 1 ml/kg [JNJ], 3 ml/kg [AFC] or 4 ml/kg [BBG, TIIAS], depending on the solubility of the different compounds). Doses and peak time effects were selected on the basis of effective doses from corresponding in vivo studies in the literature: BBG (e.g.), tanshinone IIA (e.g.) and from manufacturer's experimental data: AFC, JNJ (see, [80]). Data were analysed using SigmaPlot (vers. 12.0, Systat Software, Erkrath, Germany) and SPSS (IBM SPSS Statistics 20, […], Germany), respectively. Results are expressed as mean ± SEM. […] In the PTZ-T, the number of animals in the group with clonic seizures and the latency time were analysed using Fisher's exact probability test and the Mann-Whitney rank sum test, respectively. […] In the PTZ-kindling model, the mean seizure stage within a group was calculated in relation to the number of PTZ-injections. […] In fully kindled rats, the calculated mean seizure stage within a group after vehicle- and compound-treatment were compared using a paired t-test. […]

Like-named read-outs stand apart in the source and are kept apart here.

As to `NC(=O)N1c2ccccc2C=Cc2ccccc21` [carbamazepine], the “mean seizure stage, post-drug” value in data set [1] was 2.3. Besides, the “plasma concentrations of CBZ on co-application of AFC” value in data set [2] (AFC 25 or 50 mg/kg s.c.) is “not significantly modulated”. The concentration at 30 min was 22.8 ± 1.5 µM in data set [2] (7 mg/kg, n = 6, read-out: brain concentration of CBZ alone); 16.2 ± 0.6 µM in data set [2] (n = 6, significantly lowered, read-out: brain concentration of CBZ with AFC 25 mg/kg s.c.); 17.2 ± 1.7 µM in data set [2] (n = 6, significantly lowered, read-out: brain concentration of CBZ with AFC 50 mg/kg s.c.). In addition, the “increase of the electroconvulsive threshold” value in data set [3] is “about 50%”.
